In PubChem BioAssay (NCI) one finds GI50 and TGI data, which are given here for 15 compounds.

Holding throughout (test): inhibition of tumour cell growth, NCI panel, 48 h
Test [1] deals with U251 CNS.
Test [2] has as its system HL-60(TB) leukemia.
For test [3], the system named is NCI-H23 lung.
The test system of test [4] is OVCAR-5 ovarian.
Test [5] deals with SF-268 CNS.
Test [6] deals with MDA-MB-435.
The test system of test [7] is SF-539 CNS.
For test [8], the system named is LOX IMVI melanoma.
The test system of test [9] is MCF7 breast.
Test [10] relates to HCT-116 colon.

Values joined by “and” are separate entries in the source; they are usually repeats but may differ in a detail not shown here. Equal values may be shown once.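 How tested: cells in 96-well plates exposed to compound for 48 hours at five concentrations. GI50 is the concentration that inhibits growth by half. TGI marks complete inhibition of growth.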

As for `COc1ccc(C(CC(=O)c2ccccc2)C(C(=O)c2ccccc2)C(c2ccc(OC)cc2)C2C(=O)NC(=O)NC2=O)cc1` (stereo unspecified), the GI50 is 10.7 µM in test [1]; 41.2 µM in test [2]; 37.3 µM in [3]; 17.4 µM in test [4]; 12.8 µM in [5]; 19.6 µM in [6]. In addition, the GI50 was 17.8 µM in test [7], 9.38 µM in test [8], 18.7 µM in test [9] and 14.2 µM in [10]. For the same compound, the TGI in [1] is 51.3 µM; in test [2], more than 100 µM; in test [3], more than 100 µM; in test [4] it was 56.8 µM; in [5], 75.4 µM; in test [6], more than 100 µM. For the same compound, the TGI in test [7] was 63.2 µM; in test [8] it was more than 100 µM; in test [9], more than 100 µM; in [10], 35.9 µM.
As for `OCC1SC(n2cnc3cncnc32)C(O)C1O` (stereo unspecified), the GI50 in [1], in test [2], in test [3], in test [4], in [5] and in test [6] was more than 100 µM each time. Also, the GI50 in [7], in test [8], in test [9] and in test [10] was more than 100 µM in each case. The TGI in [1], in test [2], in test [3], in [4], in [5] and in [6] was more than 100 µM each time. The TGI in [7], in test [8], in [9] and in [10] was more than 100 µM throughout.
On to `C[C@]12CC[C@H](O)CC1=CC[C@@H]1[C@@H]2CC[C@]2(C)C(=O)/C(=C/c3cccc(OCCCn4ccnc4)c3)C[C@@H]12`, for which the GI50 in [1] is 24.8 µM; in test [2] it was 13.8 µM; in test [3], 15.5 µM; in test [4] it was 18.1 µM; in test [5], 21.4 µM; in test [6] it was 36.8 µM. The GI50 is 18.7 µM in [7], 23.1 µM in test [8], 23.1 µM in [9] and 15 µM in [10]. Also, the TGI in [1] is 77.3 µM; in test [2], 44.7 µM; in test [3], 32.3 µM; in test [4] it was 34.8 µM; in [5], 55.6 µM; in test [6], more than 100 µM. Moreover, the TGI was 35.5 µM in test [7], 56.2 µM in test [8], 54.1 µM in test [9] and 30.2 µM in test [10].
Regarding `OCCN1CCN(CCCN2c3ccccc3Sc3ccc(C(F)(F)F)cc32)CC1`, the GI50 was 1.45 µM and 5.19 µM and 3.66 µM in test [1]; 2.52 µM and 11.5 µM and 2.06 µM in [2]; 5.2 µM and 11.6 µM and 10.5 µM in test [3]; 5.68 µM and 11.2 µM and 11.5 µM in test [4]; 5.2 µM and 11.5 µM in test [5]; 1.14 µM and 3.54 µM and 2.44 µM in test [6]. In addition, the GI50 in test [7] was 4.88 µM and 10.8 µM and 9.77 µM; in test [8] it was 0.898 µM and 5.18 µM and 3.4 µM; in test [9], 1.2 µM and 6.8 µM and 7.74 µM; in test [10] it was 1.55 µM. In addition, the TGI in test [1] is 5.44 µM and 18.4 µM and 14.5 µM; in [2], 9.06 µM and 29.3 µM and 5.56 µM; in [3], 12 µM and 24.5 µM and 24.1 µM; in test [4], 12.2 µM and 25.3 µM and 25.1 µM; in test [5] it was 11.5 µM and 24.5 µM; in test [6] it was 3 µM and 14 µM and 7.42 µM. The TGI in [7] was 11.3 µM and 26.9 µM and 23.6 µM; in test [8] it was 2 µM and 18.2 µM and 12.7 µM; in test [9] it was 2.92 µM and 22.6 µM and 25.1 µM; in test [10] it was 5.52 µM.
`Cc1c(Cl)cccc1NC(=O)CC1Sc2ccccc2NC1=O` (stereo unspecified): the TGI is 34.9 µM and 33.6 µM in test [1]; 54.2 µM and 49.3 µM in [2]; 70 µM and > 100 µM in test [3]; more than 100 µM in test [4]; 46.6 µM and > 100 µM in test [5]; 9.79 µM in [6]. Besides, the TGI in test [7] was 45.1 µM and 36.2 µM; in test [8], 83.8 µM and > 100 µM; in test [9] it was more than 87 µM; in [10], 46.2 µM and 31.4 µM. Besides, the GI50 in test [5] was 18.4 µM and 37.1 µM.
Take `COc1ccc2c(c1)O/C(=C\c1cccc(OCC(=O)Nc3nc4ccccc4s3)c1)C2=O`: the GI50 was 12.6 µM in test [1]; 4.68 µM in test [2]; 3.58 µM in test [3]; more than 84.3 µM in test [4]; 4.83 µM in test [5]; 14.2 µM in test [6]. Moreover, the GI50 was 24.7 µM in test [7], 0.328 µM in [8], 14.2 µM in [9] and 24.1 µM in test [10]. The TGI was 53.3 µM in [1]; more than 63 µM in test [2]; more than 100 µM in test [3]; more than 100 µM in [4]; 11 µM in [5]; more than 100 µM in [6]. Also, the TGI in [7] is more than 84.5 µM; in [8], 1.05 µM; in test [9], more than 100 µM; in test [10], more than 100 µM.
`CC1=CC[C@@H]2[C@@H](CC[C@@]2(C)O)C(C)(C)[C@H]1CC[C@@H]1[C@@]2(C)CCC(=O)C(C)(C)O[C@@H]2CC[C@]1(C)O`: the TGI is more than 100 µM in [1]; 35 µM in [2]; more than 100 µM in test [3]; more than 100 µM in test [4]; more than 100 µM in test [5]; more than 100 µM in test [6]. Moreover, the TGI is 36.5 µM in test [7], 33.3 µM in test [8], more than 100 µM in test [9] and 42 µM in [10].
`COC1=CC(c2ccc[nH]2)=N/C1=C\c1[nH]c(C)c(C(=O)CCC(=O)Oc2ccc3c(c2)CCC2C3CC[C@]3(C)C(=O)CC[C@@H]23)c1C` (stereo partly specified): the GI50 in test [1] was 3.31 µM; in test [2] it was 50.2 µM; in [3], 9.75 µM; in test [4] it was 7.88 µM; in test [5], 5.58 µM; in [6] it was 7.7 µM. In addition, the GI50 is 14.3 µM in test [7], 0.998 µM in test [8], 1.91 µM in test [9] and 0.773 µM in test [10]. Further, the TGI is more than 86.7 µM in test [1]; more than 100 µM in [2]; more than 100 µM in test [3]; more than 81.6 µM in [4]; more than 100 µM in [5]; more than 100 µM in [6]. The TGI in test [7] was more than 100 µM; in [8] it was 3.35 µM; in test [9] it was more than 49.3 µM; in test [10], more than 100 µM.
For `O=C1C(=O)c2ccc(Br)cc2-c2cc(Br)ccc21`, the GI50 in [1] is 1.42 µM; in test [2], 0.607 µM; in test [3], 2.56 µM; in [4] it was more than 41.6 µM; in [5], 1.35 µM; in [6] it was 1.76 µM. Also, the GI50 was 8.43 µM in [7], 0.717 µM in test [8], 2.34 µM in test [9] and 0.587 µM in test [10]. The TGI in test [1] was 9.04 µM; in [2], 1.71 µM; in test [3], 13.2 µM; in test [4] it was more than 62.2 µM; in test [5] it was 8.58 µM; in [6] it was 4.07 µM. Moreover, the TGI worked out at 26.3 µM in [7], 2.13 µM in [8], 8.61 µM in test [9] and 1.43 µM in test [10].
As for `CCN(CC)c1ccc(NC(C(=O)c2ccccc2)c2ccccc2)cc1` (stereo unspecified), the GI50 in test [1] is 2.72 µM; in test [2] it was 3.24 µM; in test [3], 2.15 µM; in test [4] it was 2.24 µM; in test [5] it was 4.23 µM; in test [6], 2.25 µM. In addition, the GI50 is 2.11 µM in test [7], 1.57 µM in test [8], 2.23 µM in test [9] and 2.58 µM in test [10]. In addition, the TGI came out at 10 µM in test [1]; 20.9 µM in [2]; 4.67 µM in [3]; 5.26 µM in [4]; 17.4 µM in test [5]; 6.05 µM in test [6]. The TGI in test [7] was 4.98 µM; in test [8], 3 µM; in test [9] it was 16.6 µM; in test [10] it was 6.6 µM.
Regarding `COc1cc2c(cc1OC)C13CCN4CC5=CCOC(CC(=O)O)C(C5CC41)C3N2` (stereo unspecified), the TGI in test [1], in [2], in test [3], in [4], in test [5] and in test [6] was more than 100 µM in each case. Also, the TGI in test [7], in [8], in [9] and in [10] was more than 100 µM in each case.
Consider `Cc1cc(N(CCCl)CCCl)ccc1C=Nc1cccnc1`, for which the GI50 is 18.5 µM in test [1]; 1.58 µM in [2]; 6.93 µM in [3]; 1.86 µM in [4]; 11.3 µM in [5]; 37.8 µM in test [6]. Besides, the GI50 in test [7] is 4.81 µM; in test [8], 12.7 µM; in test [9], 1.8 µM; in test [10], 22.7 µM. Further, the TGI in test [1] is more than 100 µM; in test [2] it was 30 µM; in test [3], more than 100 µM; in test [4], 15.9 µM; in [5], more than 100 µM; in test [6], more than 100 µM. Moreover, the TGI in [7], in test [8], in test [9] and in test [10] was more than 100 µM in each case.
For `CC1(C)CCC(S(=O)(=O)c2ccc3c(c2)/C(=N\O)c2cc(S(=O)(=O)N4CCC(O)(c5cccc(C(F)(F)F)c5)CC4)ccc2-3)CC1`, the GI50 in test [1] is 0.02 µM; in [2], 0.0203 µM; in [3] it was 0.118 µM; in test [4] it was 0.0317 µM; in test [5], 0.0198 µM; in test [6], 0.0283 µM. Moreover, the GI50 was 0.0204 µM in test [7], 0.0183 µM in test [8], 0.0206 µM in [9] and 0.0163 µM in [10]. For the same compound, the TGI in [1] is 0.0384 µM; in test [2] it was 0.0681 µM; in [3], 1.37 µM; in test [4], 0.148 µM; in test [5], 0.0429 µM; in [6], 0.122 µM. In addition, the TGI in test [7] stood at 0.0448 µM; in test [8], 0.0381 µM; in test [9], 0.0485 µM; in [10], 0.0327 µM.
As to `COc1ccc2c(c1)C(=O)c1c-2c(NCCCN(C)C)nc2ccccc12`, the GI50 in test [1] is 1.98 µM; in [2], 2.63 µM; in test [3], 2.78 µM; in test [4], 10.2 µM; in test [5], 1.7 µM; in test [6], 4.05 µM. In addition, the GI50 in [7] was 10.8 µM; in test [8], 1.44 µM; in test [9], 1.54 µM; in test [10] it was 1.25 µM. Also, the TGI worked out at 4.42 µM in [1]; 12.3 µM in test [2]; 10 µM in test [3]; 21.9 µM in test [4]; 4.71 µM in test [5]; 15.4 µM in [6]. Further, the TGI in test [7] stood at 24.6 µM; in [8], 2.82 µM; in test [9], 4.05 µM; in test [10] it was 2.65 µM.
`O=C(NNc1nc2cc(F)ccc2n2c(CN3CCOCC3)ccc12)c1ccccc1`: the GI50 in test [1] was 0.207 µM; in [2], 0.25 µM; in test [3], 0.567 µM; in test [4], 0.474 µM; in test [5], 0.243 µM; in test [6], 0.603 µM. Also, the GI50 in [7] was 0.273 µM; in test [8], 0.119 µM; in test [9], 0.219 µM; in test [10], 0.139 µM. In addition, the TGI in test [1] is 2.19 µM; in [2], 0.931 µM; in test [3], 2.7 µM; in [4], 3.45 µM; in test [5], 2.69 µM; in [6] it was 2.4 µM. The TGI in test [7] turned out to be 1.39 µM; in test [8], 1.43 µM; in test [9], 1.31 µM; in test [10], 1.38 µM.
